21 molecules from patent US11680056B2, “MK2 inhibitors and uses thereof” (Xinthera, Inc., priority 2021, dated 2023) can be followed below.

Where two headings read alike, the source gives them in different places. A value given as a limit tells only on which side of the number the result lay.

The target of assay [1] is p38a/PRAK (Homo sapiens (Human), UniProt Q16539). The experiment in a line: p38a/PRAK biochemical assay: activation of PRAK by p38, FITC-HSP27 peptide phosphorylation (IMAP FP). The following applies: 10-point 1:3 dilution, top dose 300 μM; 60 pM active p38a, 1 nM inactive PRAK, 10 μM ATP, 2 h incubation; read-out: p38a/PRAK Enzyme pIC50 (converted). Summed up: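 GST-tagged MK2 (F46–H400) and PRAK (M1–Q471), expressed in E. coli, activated by p38 and phosphorylate FITC-HSP27 peptide over 2 h with compound; readout by IMAP fluorescence polarisation (ex 485/em 528 nm). Ten-point 1:3 dilutions, top dose 1 μM for MK2 and 300 μM for PRAK. IC50 after vehicle normalisation; selectivity = IC50(PRAK)/IC50(MK2).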

Assay [2] addresses p38a/MK2 (Homo sapiens (Human), UniProt P49137+Q16539). As to the kind of experiment: p38a/MK2 biochemical assay: activation of MK2 by p38, FITC-HSP27 peptide phosphorylation (IMAP FP). Conditions: 10-point 1:3 dilution, 60 pM active p38a, 1 nM inactive MK2, 10 μM ATP, 2 h incubation.
The mark [3] stands for this setting: top dose 1 μM, read-out: p38a/MK2 (1 μM) Enzyme pIC50 (converted).
Setting [4] is: top dose 10 μM, read-out: p38a/MK2 (10 μM) Enzyme pIC50 (converted).

Sequence of p38a/MK2 (P49137 46-400): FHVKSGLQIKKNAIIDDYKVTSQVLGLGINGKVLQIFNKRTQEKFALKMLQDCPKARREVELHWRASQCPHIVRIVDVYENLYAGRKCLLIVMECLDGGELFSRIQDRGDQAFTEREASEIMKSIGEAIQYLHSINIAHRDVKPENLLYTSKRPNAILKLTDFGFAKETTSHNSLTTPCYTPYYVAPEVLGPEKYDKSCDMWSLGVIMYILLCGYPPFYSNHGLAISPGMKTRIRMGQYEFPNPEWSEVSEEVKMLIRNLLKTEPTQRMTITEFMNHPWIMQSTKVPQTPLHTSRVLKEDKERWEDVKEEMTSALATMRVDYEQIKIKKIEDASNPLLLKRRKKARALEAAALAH
Sequence of p38a/MK2 (Q16539 whole entry): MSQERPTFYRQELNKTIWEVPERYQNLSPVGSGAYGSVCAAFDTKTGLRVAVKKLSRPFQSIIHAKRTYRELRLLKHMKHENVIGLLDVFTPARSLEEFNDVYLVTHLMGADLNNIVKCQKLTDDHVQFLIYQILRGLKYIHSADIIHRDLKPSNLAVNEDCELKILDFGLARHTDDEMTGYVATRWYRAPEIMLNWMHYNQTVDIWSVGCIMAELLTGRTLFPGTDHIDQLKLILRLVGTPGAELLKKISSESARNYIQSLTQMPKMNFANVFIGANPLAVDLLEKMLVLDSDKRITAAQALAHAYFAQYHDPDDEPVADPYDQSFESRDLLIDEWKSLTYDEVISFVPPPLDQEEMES
Sequence of p38a/PRAK (Q16539 whole entry): as above

As to `Cc1cnc(-c2ccnc(C(C)(C)CO)n2)cc1-n1c(C)cc(OCc2ncc(F)cc2F)c(Cl)c1=O` (atropisomer, axis not shown) [Example 4, 3-chloro-4-[(3,5-difluoropyridin-2-yl)methoxy]-2′-[2-(1-hydroxy-2-methylpropan-2-yl)pyrimidin-4-yl]-5′,6-dimethyl-[1,4′-bipyridin]-2-one], in assay [1], the IC50 is 7940 nM. The “p38a/MK2 (10 μM) Enzyme pIC50” value in assay [2] (top dose 10 μM) worked out at 7.8.

For the molecule `[2H]C([2H])(Oc1cc(C)n(-c2c(C)cnc(-c3ccnc(C(O)(C([2H])([2H])[2H])C([2H])([2H])[2H])n3)c2F)c(=O)c1Cl)c1ncc(F)cc1F` (single isomer, unassigned) [Example 67B, rel-3-chloro-4-((3,5-difluoropyridin-2-yl)methoxy-d2)-3′-fluoro-2′-(2-(2-hydroxypropan-2-yl-1,1,1,3,3,3-d6)pyrimidin-4-yl)-5′,6-dimethyl-2H-[1,4′-bipyridin]-2-one], the results for the IC50 in assay [1] and in assay [2] (setting [3]) were 31600 nM and 79.4 nM, respectively.

On to `Cc1cnc(-c2ccnc([C@@](C)(O)C3CC3)n2)cc1-n1c(C)cc(OCc2ncc(F)cc2F)c(Cl)c1=O` (single isomer, unassigned) [Example 6D, rel-3-chloro-2′-[2-(1-cyclopropyl-1-hydroxyethyl)pyrimidin-4-yl]-4-[(3,5-difluoropyridin-2-yl)methoxy]-5′,6-dimethyl-[1,4′-bipyridin]-2-one], for which the IC50 in assay [1] was greater than 316000 nM; in assay [2] (setting [4]), 2510 nM.

As for `Cc1cnc(-c2ccnc(C3(O)CC3)n2)cc1-n1c(C)cc(OCc2ncc(F)cc2F)c(Cl)c1=O` (single isomer, unassigned) [Example 3A, rel-3-chloro-4-[(3,5-difluoropyridin-2-yl)methoxy]-2′-[2-(1-hydroxycyclopropyl)pyrimidin-4-yl]-5′,6-dimethyl-[1,4′-bipyridin]-2-one], the IC50 in assay [1] was 3980 nM; in assay [2] (setting [3]) it was 10 nM.

For `Cc1cnc(-n2ccc(C(=O)NC3CC3)n2)cc1-n1c(C)cc(OCc2ncc(F)cc2F)c(Cl)c1=O` (single isomer, unassigned) [Example 44B, rel-1-{3-chloro-4-[(3,5-difluoropyridin-2-yl)methoxy]-5′,6-dimethyl-2-oxo-[1,4′-bipyridin]-2′-yl}-N-cyclopropylpyrazole-3-carboxamide], the results for the IC50 in assay [1] and in assay [2] (setting [3]) were greater than 316000 nM and greater than 1000 nM, respectively.

Take `Cc1cnc(-c2ccnc(C(C)(C)O)n2)cc1-n1c(C)cc(OCc2cc(C(F)F)ccn2)c(Cl)c1=O` (single isomer, unassigned) [Example 27B, rel-3-chloro-4-{[4-(difluoromethyl)pyridin-2-yl]methoxy}-2′-[2-(2-hydroxypropan-2-yl)pyrimidin-4-yl]-5′,6-dimethyl-[1,4′-bipyridin]-2-one]: the figures for the IC50 in assay [1] and in assay [2] (setting [4]) were greater than 316000 nM and 5010 nM, respectively.

Take `Cc1cnc(-c2ccc3c(n2)C(C)(O)CC3)cc1-n1c(C)cc(OCc2ncc(F)cc2F)c(Cl)c1=O` (single isomer, unassigned) [Example 32A]: the IC50 in assay [1] was 6310 nM; in assay [2] (setting [3]), 20 nM.

With `Cc1cnc(-c2ccnc(C(C)(C)CO)n2)cc1-n1c(C)cc(OCc2ncc(F)cc2F)c(Cl)c1=O` (single isomer, unassigned) [Example 4B, rel-3-chloro-4-[(3,5-difluoropyridin-2-yl)methoxy]-2′-[2-(1-hydroxy-2-methylpropan-2-yl)pyrimidin-4-yl]-5′,6-dimethyl-[1,4′-bipyridin]-2-one], the figures for the IC50 in assay [1] and in assay [2] (setting [4]) were greater than 316000 nM and 794 nM, respectively.

For the molecule `Cc1ncc(-c2ccnc(C(C)(C)O)n2)cc1-n1c(C)cc(OCc2ncc(F)cc2F)c(Cl)c1=O` (single isomer, unassigned) [Example 45A, rel-3-chloro-4-[(3,5-difluoropyridin-2-yl)methoxy]-5′-[2-(2-hydroxypropan-2-yl)pyrimidin-4-yl]-2′,6-dimethyl-[1,3′-bipyridin]-2-one], the figures for the IC50 in assay [1] and in assay [2] (setting [3]) were greater than 316000 nM and greater than 1000 nM, respectively.

With `Cc1c(-n2c(C)cc(OCc3ncc(F)cc3F)c(Cl)c2=O)ccnc1-n1ccc(C(C)(C)O)n1` (single isomer, unassigned) [Example 52B, rel-3-chloro-4-((3,5-difluoropyridin-2-yl)methoxy)-2′-(3-(2-hydroxypropan-2-yl)-1H-pyrazol-1-yl)-3′,6-dimethyl-2H-[1,4′-bipyridin]-2-one], the IC50 is 25100 nM in assay [1] and 15.8 nM in assay [2] (setting [3]).

`[2H]C([2H])(Oc1cc(C)n(-c2c(C)cnc(-c3ccnc(C(C)(C)O)n3)c2F)c(=O)c1Cl)c1ncc(F)cc1F` (single isomer, unassigned) [Example 57A, rel-3-chloro-4-[(3,5-difluoropyridin-2-yl)(2H2)methoxy]-3′-fluoro-2′-[2-(2-hydroxypropan-2-yl)pyrimidin-4-yl]-5′,6-dimethyl-[1,4′-bipyridin]-2-one]: the IC50 in assay [1] was 794 nM; in assay [2] (setting [3]) it was 1.26 nM.

`Cc1cnc(-c2cccc(C(C)(C)O)[n+]2[O-])c(F)c1-n1c(C)cc(OCc2ncc(F)cc2F)c(Cl)c1=O` (single isomer, unassigned) [Example 62B, rel-3-chloro-4-((3,5-difluoropyridin-2-yl)methoxy)-3′-fluoro-6″-(2-hydroxypropan-2-yl)-5′,6-dimethyl-2-oxo-2H-[1,4′:2′,2″-terpyridine] 1″-oxide]: the IC50 was greater than 316000 nM in assay [1] and greater than 100 nM in assay [2] (setting [3]).

As for `Cc1sc(-c2ccnc(C(C)(C)O)n2)cc1-n1c(C)cc(OCc2ncc(F)cc2F)c(Cl)c1=O` (single isomer, unassigned) [Example 33A, 3-chloro-4-[(3,5-difluoropyridin-2-yl)methoxy]-1-{5-[2-(2-hydroxypropan-2-yl)pyrimidin-4-yl]-2-methylthiophen-3-yl}-6-methylpyridin-2-one], the IC50 in assay [1] is 5010 nM; in assay [2] (setting [3]), 25.1 nM.

As for `[2H]C([2H])(Oc1cc(C)n(-c2c(C)cnc(-c3ccnc(C(C)(C)CO)n3)c2F)c(=O)c1Cl)c1ncc(F)cc1F` (single isomer, unassigned) [Example 59B, rel-3-chloro-4-((3,5-difluoropyridin-2-yl)methoxy-d2)-3′-fluoro-2′-(2-(1-hydroxy-2-methylpropan-2-yl)pyrimidin-4-yl)-5′,6-dimethyl-2H-[1,4′-bipyridin]-2-one], the IC50 is 316 nM in assay [1] and 1 nM in assay [2] (setting [3]).

On to `Cc1cnc(-c2nc(C(C)(C)O)ncc2C2CC2)cc1-n1c(C)cc(OCc2ncc(F)cc2F)c(Cl)c1=O` (single isomer, unassigned) [Example 31A, rel-3-chloro-2′-(5-cyclopropyl-2-(2-hydroxypropan-2-yl)pyrimidin-4-yl)-4-((3,5-difluoropyridin-2-yl)methoxy)-5′,6-dimethyl-2H-[1,4′-bipyridin]-2-one], for which the IC50 was 3160 nM in assay [1] and 2000 nM in assay [2] (setting [4]).

Consider `Cc1cnc(-c2ccnc(C(C)(C)C(F)F)n2)cc1-n1c(C)cc(OCc2ncc(F)cc2F)c(Cl)c1=O` (atropisomer, axis not shown) [Example 5, 3-chloro-2′-[2-(1,1-difluoro-2-methylpropan-2-yl)pyrimidin-4-yl]-4-[(3,5-difluoropyridin-2-yl)methoxy]-5′,6-dimethyl-[1,4′-bipyridin]-2-one], for which the IC50 in assay [1] is 3160 nM. Further, the “p38a/MK2 (10 μM) Enzyme pIC50” value in assay [2] (top dose 10 μM) is listed as 7.8.

Turning to `Cc1cnc(-n2ccc(C(C)(C)CO)n2)cc1-n1c(C)cc(OCc2ncc(F)cc2F)c(Cl)c1=O` (single isomer, unassigned) [Example 37A, rel-3-chloro-4-[(3,5-difluoropyridin-2-yl)methoxy]-2′-[3-(1-hydroxy-2-methylpropan-2-yl)pyrazol-1-yl]-5′,6-dimethyl-[1,4′-bipyridin]-2-one], the figures for the IC50 in assay [1] and in assay [2] (setting [3]) were 2510 nM and 5.01 nM, respectively.

On to `Cc1cnc(-c2ccc3c(n2)C(C)(O)CC3)cc1-n1c(C)cc(OCc2ncc(F)cc2F)c(Cl)c1=O` (single isomer, unassigned) [Example 32D], for which the IC50 in assay [1] was greater than 316000 nM; in assay [2] (setting [4]), 1260 nM.

Consider `Cc1cnc(-c2ccnc(C(C)(C)C(F)F)n2)cc1-n1c(C)cc(OCc2ncc(F)cc2F)c(Cl)c1=O` (single isomer, unassigned) [Example 5A, rel-3-chloro-2′-[2-(1,1-difluoro-2-methylpropan-2-yl)pyrimidin-4-yl]-4-[(3,5-difluoropyridin-2-yl)methoxy]-5′,6-dimethyl-[1,4′-bipyridin]-2-one], for which the IC50 in assay [1] is 2510 nM; in assay [2] (setting [4]), 6.31 nM.

As to `Cc1cnc(-c2ccnc(C(C)(C)O)n2)c(F)c1-n1c(C)cc(OCc2ncc(F)cc2F)c(Cl)c1=O` (single isomer, unassigned) [Example 53B, rel-3-chloro-4-[(3,5-difluoropyridin-2-yl)methoxy]-3′-fluoro-2′-[2-(2-hydroxypropan-2-yl)pyrimidin-4-yl]-5′,6-dimethyl-[1,4′-bipyridin]-2-one], the IC50 in assay [1] was 794 nM; in assay [2] (setting [3]), 0.126 nM.

Regarding `Cc1cnc(-c2ccnc(C(C)(C)O)c2)cc1-n1c(C)cc(OCc2ncc(F)cc2F)c(Cl)c1=O` (single isomer, unassigned) [Example 38B, rel-3-chloro-4-[(3,5-difluoropyridin-2-yl)methoxy]-2′-[2-(2-hydroxypropan-2-yl)pyridin-4-yl]-5′,6-dimethyl-[1,4′-bipyridin]-2-one], the IC50 was greater than 316000 nM in assay [1] and greater than 1000 nM in assay [2] (setting [3]).
